Measurements from ChEMBL document CHEMBL4340512, “Discovery of novel triazolo[4,3-b]pyridazin-3-yl-quinoline derivatives as PIM inhibitors” (Eur J Med Chem, 2019).

Columns and labels:
JeKo-1 [1] = test: Antiproliferative activity against human JeKo1 assessed as combination index at 10 uM incubated for 72 hrs in presence of GI50 dose of Lapatinib by CellTiter-Glo luminescence assay; assay type: functional
MDA-MB-231 [2] = test: Antiproliferative activity against human MDA-MB-231 assessed as combination index at 20 uM incubated for 72 hrs in presence of GI50 dose of Lapatinib by CellTiter-Glo luminescence assay; assay type: functional
HCT-116 = test: Antiproliferative activity against human HCT116 assessed as combination index at 20 uM incubated for 72 hrs in presence of GI50 dose of Lapatinib by CellTiter-Glo luminescence assay; assay type: functional
T47D [3] = test: Antiproliferative activity against human T47D assessed as combination index at 20 uM incubated for 72 hrs in presence of GI50 dose of Lapatinib by CellTiter-Glo luminescence assay; assay type: functional
T47D [4] = test: Antiproliferative activity against human T47D assessed as combination index at 20 uM incubated for 72 hrs in presence of GI50 dose of GDC-0941 by CellTiter-Glo luminescence assay; assay type: functional
PC-3 [5] = test: Antiproliferative activity against human PC3 assessed as combination index at 20 uM incubated for 72 hrs in presence of GI50 dose of GDC-0941 by CellTiter-Glo luminescence assay; assay type: functional
PC-3 [6] = test: Antiproliferative activity against human PC3 assessed as combination index at 20 uM incubated for 72 hrs in presence of GI50 dose of Bortezomib by CellTiter-Glo luminescence assay; assay type: functional
Raji = test: Antiproliferative activity against human Raji cells incubated for 72 hrs by CellTiter-Glo luminescence assay; assay type: functional
A498 = test: Antiproliferative activity against human A498 cells incubated for 72 hrs by CellTiter-Glo luminescence assay; assay type: functional; conditions: A498, 72 h
CAKI-1 = test: Antiproliferative activity against human CAKI-1 cells incubated for 72 hrs by CellTiter-Glo luminescence assay; assay type: functional; conditions: CAKI-1, 72 h
LNCaP = test: Antiproliferative activity against human LNCAP cells incubated for 72 hrs by CellTiter-Glo luminescence assay; assay type: functional
ASPC1 = test: Antiproliferative activity against human Aspc-1 cells incubated for 72 hrs by CellTiter-Glo luminescence assay; assay type: functional; conditions: ASPC1, 72 h
SK-MEL19 [7] = test: Antiproliferative activity against human SK-MEL-19 cells incubated for 72 hrs by CellTiter-Glo luminescence assay; assay type: functional; conditions: SK-MEL19, 72 h
NCI-H522 = test: Antiproliferative activity against human NCI-H522 cells incubated for 72 hrs by CellTiter-Glo luminescence assay; assay type: functional; conditions: NCI-H522, 72 h
U-87 MG = test: Antiproliferative activity against human U87MG cells incubated for 72 hrs by CellTiter-Glo luminescence assay; assay type: functional, U-87MG ATCC
[8] = Antiproliferative activity against human TC71 cells incubated for 72 hrs by CellTiter-Glo luminescence assay; assay type: functional; conditions: TC-71, 72 h
T84 = test: Antiproliferative activity against human T84 cells incubated for 72 hrs by CellTiter-Glo luminescence assay; assay type: functional; conditions: T84, 72 h
SW480 = test: Antiproliferative activity against human SW480 cells incubated for 72 hrs by CellTiter-Glo luminescence assay; assay type: functional; conditions: SW480, 72 h
MCF7 = test: Antiproliferative activity against human MCF7 cells incubated for 72 hrs by CellTiter-Glo luminescence assay; assay type: functional; conditions: MCF7, 72 h
[9] = Antiproliferative activity against human MDA-MB-175 cells incubated for 72 hrs by CellTiter-Glo luminescence assay; assay type: functional
[10] = target: T1, Receptor-type tyrosine-protein kinase FLT3 (Homo sapiens, UniProt P36888); test: Inhibition of human FLT3 using EAIYAAPFAKKK as substrate incubated for 60 mins by fluorescence based assay
T1 sequence (P36888 whole entry): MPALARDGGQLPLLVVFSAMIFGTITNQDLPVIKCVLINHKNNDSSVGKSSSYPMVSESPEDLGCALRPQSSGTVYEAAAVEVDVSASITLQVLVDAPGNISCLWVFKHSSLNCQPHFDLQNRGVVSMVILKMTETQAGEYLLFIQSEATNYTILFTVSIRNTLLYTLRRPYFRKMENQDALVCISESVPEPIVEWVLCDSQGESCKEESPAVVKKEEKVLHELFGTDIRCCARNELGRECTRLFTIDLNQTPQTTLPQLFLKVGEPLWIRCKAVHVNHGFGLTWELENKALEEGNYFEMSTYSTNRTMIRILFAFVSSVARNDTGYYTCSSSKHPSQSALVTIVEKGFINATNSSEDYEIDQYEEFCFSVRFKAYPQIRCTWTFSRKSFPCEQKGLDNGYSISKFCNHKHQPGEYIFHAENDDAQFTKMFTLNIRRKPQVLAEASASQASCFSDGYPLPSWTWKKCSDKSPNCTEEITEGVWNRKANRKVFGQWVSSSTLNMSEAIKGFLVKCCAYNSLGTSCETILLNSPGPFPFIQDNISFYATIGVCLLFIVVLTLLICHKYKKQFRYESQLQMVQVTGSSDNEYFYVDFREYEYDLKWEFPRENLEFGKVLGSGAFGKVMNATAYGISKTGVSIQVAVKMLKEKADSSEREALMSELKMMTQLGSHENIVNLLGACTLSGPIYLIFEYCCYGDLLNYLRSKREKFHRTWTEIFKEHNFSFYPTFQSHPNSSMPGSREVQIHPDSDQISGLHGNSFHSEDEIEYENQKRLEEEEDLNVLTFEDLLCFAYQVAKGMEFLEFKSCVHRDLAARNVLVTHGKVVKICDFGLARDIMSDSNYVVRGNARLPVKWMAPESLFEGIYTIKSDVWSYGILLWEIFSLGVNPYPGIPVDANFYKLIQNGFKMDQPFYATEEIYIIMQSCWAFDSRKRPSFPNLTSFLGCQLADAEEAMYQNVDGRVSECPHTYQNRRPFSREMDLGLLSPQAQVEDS

[11] = target: Serine/threonine-protein kinase pim-3 (Homo sapiens, UniProt Q86V86); test: Inhibition of N-terminal 6-His tagged human recombinant PIM3 using PIM tide (ARKRRRHPSGPPTA) as substrate incubated for 1 hr by fluorescence based assay
[12] = target: Serine/threonine-protein kinase pim-1 (Homo sapiens, UniProt P11309); test: Inhibition of His tagged human recombinant PIM1 using PIM tide (ARKRRRHPSGPPTA) as substrate incubated for 1 hr by fluorescence based assay
Sequence of Serine/threonine-protein kinase pim-1 (P11309 whole entry): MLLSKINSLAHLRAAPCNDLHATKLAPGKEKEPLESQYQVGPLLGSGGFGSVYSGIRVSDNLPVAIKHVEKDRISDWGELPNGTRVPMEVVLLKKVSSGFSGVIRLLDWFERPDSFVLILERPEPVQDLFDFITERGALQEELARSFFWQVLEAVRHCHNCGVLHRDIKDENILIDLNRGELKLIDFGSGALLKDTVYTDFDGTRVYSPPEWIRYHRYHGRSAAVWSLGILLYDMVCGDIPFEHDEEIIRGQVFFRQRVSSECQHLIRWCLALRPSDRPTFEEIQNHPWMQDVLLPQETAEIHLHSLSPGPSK

SK-MEL19 [13] = test: Antiproliferative activity against human SK-MEL-19 assessed as combination index at 5 uM incubated for 72 hrs in presence of GI50 dose of Lapatinib by CellTiter-Glo luminescence assay; assay type: functional
MDA-MB-231 [14] = test: Antiproliferative activity against human MDA-MB-231 assessed as combination index at 20 uM incubated for 72 hrs in presence of GI50 dose of Palbociclib by CellTiter-Glo luminescence assay; assay type: functional
JeKo-1 [15] = test: Antiproliferative activity against human JeKo1 assessed as combination index at 10 uM incubated for 72 hrs in presence of GI50 dose of Palbociclib by CellTiter-Glo luminescence assay; assay type: functional
[16] = target: Voltage-gated inwardly rectifying potassium channel KCNH2 (Homo sapiens, UniProt Q12809)
Sequence of Voltage-gated inwardly rectifying potassium channel KCNH2 (Q12809 whole entry): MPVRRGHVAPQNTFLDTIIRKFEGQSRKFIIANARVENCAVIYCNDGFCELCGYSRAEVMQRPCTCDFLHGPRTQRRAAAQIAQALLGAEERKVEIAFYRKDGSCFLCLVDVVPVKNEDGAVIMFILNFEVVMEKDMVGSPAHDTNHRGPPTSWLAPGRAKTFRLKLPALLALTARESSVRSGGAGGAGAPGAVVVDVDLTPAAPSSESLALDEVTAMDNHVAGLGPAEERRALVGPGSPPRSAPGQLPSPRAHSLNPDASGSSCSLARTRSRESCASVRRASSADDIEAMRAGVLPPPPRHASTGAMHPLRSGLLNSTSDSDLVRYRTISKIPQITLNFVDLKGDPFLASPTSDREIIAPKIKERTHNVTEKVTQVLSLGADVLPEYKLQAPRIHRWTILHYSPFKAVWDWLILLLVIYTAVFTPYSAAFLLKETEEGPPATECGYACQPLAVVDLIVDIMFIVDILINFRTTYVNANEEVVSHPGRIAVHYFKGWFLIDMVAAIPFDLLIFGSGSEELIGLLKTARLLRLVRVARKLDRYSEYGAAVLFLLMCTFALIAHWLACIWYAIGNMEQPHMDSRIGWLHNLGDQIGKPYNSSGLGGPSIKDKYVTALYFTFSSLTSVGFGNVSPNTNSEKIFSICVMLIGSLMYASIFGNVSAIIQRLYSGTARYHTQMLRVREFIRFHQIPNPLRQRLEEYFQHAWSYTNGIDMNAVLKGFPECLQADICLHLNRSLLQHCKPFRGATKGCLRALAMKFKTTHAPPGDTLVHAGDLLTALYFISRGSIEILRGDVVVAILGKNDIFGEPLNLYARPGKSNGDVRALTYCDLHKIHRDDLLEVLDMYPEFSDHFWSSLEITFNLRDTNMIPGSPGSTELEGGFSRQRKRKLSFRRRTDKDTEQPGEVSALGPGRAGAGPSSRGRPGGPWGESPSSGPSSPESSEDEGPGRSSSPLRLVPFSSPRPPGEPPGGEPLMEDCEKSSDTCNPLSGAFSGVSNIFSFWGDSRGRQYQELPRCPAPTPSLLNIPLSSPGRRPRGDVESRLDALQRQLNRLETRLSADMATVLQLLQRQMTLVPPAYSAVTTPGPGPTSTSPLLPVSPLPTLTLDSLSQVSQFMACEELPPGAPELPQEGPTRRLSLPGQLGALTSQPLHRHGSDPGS

Structure (SMILES): COCCN1CCOc2c1cnn1c(-c3ccc4cccc(NCC5CCNCC5)c4n3)nnc21
- CI (JeKo-1 [1]): 0.295
- CI (MDA-MB-231 [2]): 0.116
- CI (HCT-116): 0.001
- CI (T47D [3]): 0.0001
- CI (T47D [4]): 0.598
- CI (PC-3 [5]): 0.094
- CI (PC-3 [6]): 0.313
- GI50 (Raji): 20 µM
- GI50 (A498): 8.98 µM
- GI50 (CAKI-1): 22.1 µM
- GI50 (LNCaP): 18.6 µM
- GI50 (ASPC1): 7.25 µM
- GI50 (SK-MEL19 [7]): 1.48 µM
- GI50 (NCI-H522): 9.7 µM
- GI50 (U-87 MG): 21.7 µM
- GI50 [8]: 14.9 µM
- GI50 (T84): 23.2 µM
- GI50 (SW480): 8.17 µM
- GI50 (MCF7): 19.6 µM
- GI50 [9]: 10.2 µM
- IC50 [10]: > 10 µM
- IC50 [11]: 0.07 µM
- IC50 [12]: 0.007 µM
- CI (SK-MEL19 [13]): 0.508
- CI (MDA-MB-231 [14]): 0.047
- CI (JeKo-1 [15]): 0.108
- IC50 [16]: > 20 µM
